Test results taken from ChEMBL document CHEMBL5236604, “Cage hydrocarbons as linkers in dimeric drug design: Case studies with trimethoprim and tedizolid” (2023).
≈ marks a conversion by molar mass, not a printed value. Calls of active or inactive are those of the source. The rule behind the calls is not given here.

Key:
Staphylococcus aureus [1] = experiment: Antibacterial activity against trimethoprim sensitive Staphylococcus aureus assessed as inhibition of bacterial growth; assay type: functional
Staphylococcus aureus [2] = experiment: Antibacterial activity against trimethoprim resistant Staphylococcus aureus assessed as inhibition of bacterial growth; assay type: functional
Enterococcus faecium [3] = experiment: Antibacterial activity against trimethoprim sensitive Enterococcus faecium assessed as inhibition of bacterial growth; assay type: functional
Enterococcus faecium [4] = experiment: Antibacterial activity against trimethoprim resistant Enterococcus faecium assessed as inhibition of bacterial growth; assay type: functional
Acinetobacter baumannii [5] = experiment: Antibacterial activity against trimethoprim sensitive Acinetobacter baumannii assessed as inhibition of bacterial growth; assay type: functional
Staphylococcus aureus [6] = experiment: Antibacterial activity against Staphylococcus aureus; assay type: functional, organism-based
Enterococcus faecium [7] = experiment: Antibacterial activity against Enterococcus faecium; assay type: functional, organism-based
Acinetobacter baumannii [8] = experiment: Antibacterial activity against trimethoprim resistant Acinetobacter baumannii assessed as inhibition of bacterial growth; assay type: functional

COc1cc(Cc2cnc(N)nc2N)cc(OC)c1O [4-HYDROXYTRIMETHOPRIM]
MIC (Staphylococcus aureus [1]): 12.5 µM (≈ 3.45 µg/mL) | MIC (Staphylococcus aureus [2]): > 25 µM | MIC (Enterococcus faecium [3]): 3.12 µM (≈ 0.863 µg/mL) | MIC (Enterococcus faecium [4]): 60 µM (≈ 16.6 µg/mL) | MIC (Acinetobacter baumannii [5]): > 100 µM

COc1cc(Cc2cnc(N)nc2N)cc(OC)c1OC(=O)C12CCC(C(=O)Oc3c(OC)cc(Cc4cnc(N)nc4N)cc3OC)(CC1)CC2
MIC (Staphylococcus aureus [1]): > 100 µM | MIC (Enterococcus faecium [3]): 3.12 µM (≈ 2.23 µg/mL) | MIC (Enterococcus faecium [4]): > 100 µM | MIC (Acinetobacter baumannii [5]): > 100 µM

COc1cc(Cc2cnc(N)nc2N)cc(OC)c1OC(=O)C12CC(C(=O)Oc3c(OC)cc(Cc4cnc(N)nc4N)cc3OC)(C1)C2
MIC (Staphylococcus aureus [1]): 25 µM (≈ 16.8 µg/mL) | MIC (Staphylococcus aureus [2]): > 100 µM | MIC (Enterococcus faecium [3]): 1.56 µM (≈ 1.05 µg/mL) | MIC (Enterococcus faecium [4]): > 50 µM | MIC (Acinetobacter baumannii [5]): > 100 µM

CC(C)(C)[Si](C)(C)OC[C@H]1CN(c2ccc(O)c(F)c2)C(=O)O1
Activity (Staphylococcus aureus [6]): inactive | Activity (Enterococcus faecium [7]): inactive

COc1cc(Cc2cnc(N)nc2N)cc(OC)c1OC [TRIMETHOPRIM]
MIC (Staphylococcus aureus [1]): 6.25 µM (≈ 1.81 µg/mL) | MIC (Staphylococcus aureus [2]): 12.5 µM (≈ 3.63 µg/mL) | MIC (Enterococcus faecium [3]): 0.78 µM (≈ 0.226 µg/mL) | MIC (Enterococcus faecium [4]): 100 µM (≈ 29 µg/mL) | MIC (Acinetobacter baumannii [5]): 6.25 µM (≈ 1.81 µg/mL) | MIC (Acinetobacter baumannii [8]): > 400 µM

COc1cc(Cc2cnc(N)nc2N)cc(OC)c1OC(=O)C12CC3CC(C1)CC(C(=O)Oc1c(OC)cc(Cc4cnc(N)nc4N)cc1OC)(C3)C2
MIC (Staphylococcus aureus [1]): 12.5 µM (≈ 9.26 µg/mL) | MIC (Staphylococcus aureus [2]): > 25 µM | MIC (Enterococcus faecium [3]): 6.25 µM (≈ 4.63 µg/mL) | MIC (Enterococcus faecium [4]): 50 µM (≈ 37 µg/mL) | MIC (Acinetobacter baumannii [5]): > 100 µM
